Measurements: patent US20100136024A1, “Selective Inhibition of Histone Deacetylase 6 for Ocular Neuroprotection or for Treatment or Control of Glaucoma” (priority 2008, published 2010)
Read-outs that look alike come from different tables or passages of the source.

Legend:
HDAC6 [1] = biological target: T1, HDAC6 (Homo sapiens, UniProt Q9UBN7); test: HDAC6 inhibition and selectivity, '853 Patent; type: biochemical; settings: worked out from the IC50 of '853 Patent FIG. 3
T1 sequence (Q9UBN7 1-1215): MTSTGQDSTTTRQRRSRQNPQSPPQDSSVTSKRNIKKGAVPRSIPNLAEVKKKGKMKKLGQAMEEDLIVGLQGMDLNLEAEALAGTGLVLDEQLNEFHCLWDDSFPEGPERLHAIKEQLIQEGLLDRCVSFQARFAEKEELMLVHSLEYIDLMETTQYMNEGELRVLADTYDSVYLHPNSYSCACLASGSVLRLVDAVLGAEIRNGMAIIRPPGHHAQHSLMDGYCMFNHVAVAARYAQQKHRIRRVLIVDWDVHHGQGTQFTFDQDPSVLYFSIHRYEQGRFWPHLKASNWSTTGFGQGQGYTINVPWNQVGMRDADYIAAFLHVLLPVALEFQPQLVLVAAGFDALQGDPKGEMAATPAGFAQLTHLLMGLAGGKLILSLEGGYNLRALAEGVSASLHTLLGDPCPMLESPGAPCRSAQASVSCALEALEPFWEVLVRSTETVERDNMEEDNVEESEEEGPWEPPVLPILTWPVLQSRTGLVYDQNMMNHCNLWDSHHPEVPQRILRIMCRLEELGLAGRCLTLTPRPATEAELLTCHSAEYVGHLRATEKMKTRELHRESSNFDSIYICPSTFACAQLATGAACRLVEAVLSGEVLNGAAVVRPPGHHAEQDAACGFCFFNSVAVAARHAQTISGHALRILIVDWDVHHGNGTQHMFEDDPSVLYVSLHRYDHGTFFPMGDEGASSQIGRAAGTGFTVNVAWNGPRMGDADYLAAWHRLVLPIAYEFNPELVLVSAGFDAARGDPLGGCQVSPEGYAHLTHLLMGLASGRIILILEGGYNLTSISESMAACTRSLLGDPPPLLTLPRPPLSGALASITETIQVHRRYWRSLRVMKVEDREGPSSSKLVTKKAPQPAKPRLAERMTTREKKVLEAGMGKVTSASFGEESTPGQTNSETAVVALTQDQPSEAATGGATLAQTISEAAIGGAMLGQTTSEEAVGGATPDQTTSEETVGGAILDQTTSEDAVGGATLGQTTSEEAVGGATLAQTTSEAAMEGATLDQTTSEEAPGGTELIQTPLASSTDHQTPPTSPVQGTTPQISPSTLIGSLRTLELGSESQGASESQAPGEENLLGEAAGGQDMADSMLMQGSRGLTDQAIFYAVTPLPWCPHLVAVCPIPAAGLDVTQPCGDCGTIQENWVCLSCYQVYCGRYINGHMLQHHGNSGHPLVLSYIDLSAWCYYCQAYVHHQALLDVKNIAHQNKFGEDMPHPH
Description: Id., col. 114, lines 64-65. […] Id., col. 115, lines 37-38. […] Id., col. 137.
The '853 Patent provides, in its FIG. 3, the following data regarding the HDAC6 selective activity of compound 10, in comparison with other preferred but non-selective inhibitors of HDAC1 and HDAC6, i.e., compounds 8 and 9: […]

HDAC1 = HDAC1 (Homo sapiens, UniProt Q13547); settings: '853 Patent FIG. 3; read-out: Inhibiting Concentration IC50 for HDAC1; cited from earlier work
Chain of HDAC1 (Q13547 whole entry, species assumed): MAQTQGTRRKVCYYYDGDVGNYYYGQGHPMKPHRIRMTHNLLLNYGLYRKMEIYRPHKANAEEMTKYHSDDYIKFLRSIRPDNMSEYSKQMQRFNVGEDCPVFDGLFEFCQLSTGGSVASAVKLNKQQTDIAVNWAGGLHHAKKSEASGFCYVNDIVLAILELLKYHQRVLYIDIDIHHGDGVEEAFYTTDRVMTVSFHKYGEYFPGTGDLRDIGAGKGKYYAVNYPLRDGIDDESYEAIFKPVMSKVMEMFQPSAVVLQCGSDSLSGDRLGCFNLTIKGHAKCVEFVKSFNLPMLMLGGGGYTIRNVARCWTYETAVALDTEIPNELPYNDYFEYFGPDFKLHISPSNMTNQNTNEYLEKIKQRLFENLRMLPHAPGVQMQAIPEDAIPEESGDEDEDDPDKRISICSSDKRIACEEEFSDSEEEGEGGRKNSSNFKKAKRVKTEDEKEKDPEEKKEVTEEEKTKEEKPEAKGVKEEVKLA

HDAC6 [2] = biological target: T1, HDAC6; settings: '853 Patent FIG. 3; read-out: Inhibiting Concentration IC50 for HDAC6; cited from earlier work
HDAC6 [3] = biological target: T1, HDAC6; settings: Itoh et al. enzyme assay; cited from earlier work
A549 cells = settings: cited from earlier work
[4] = system: histone acetylation, gene-expression patterns, cell-cycle progression; settings: Haggarty et al.; cited from earlier work
[5] = system: HDAC6-mediated α-tubulin deacetylation; settings: Haggarty et al.; cited from earlier work

Row | SMILES | IC50 (HDAC6 [3]) [nM] | selectivity HDAC1/HDAC6 (HDAC1 IC50/HDAC6 IC50) (HDAC6 [3]) | selectivity HDAC4/HDAC6 (HDAC4 IC50/HDAC6 IC50) (HDAC6 [3]) | also measured
1 | O=C(CCCC(=O)NCc1ccccc1)NO [Compound 10] |  |  |  | times more selective for HDAC6 than HDAC1 (HDAC6 [1]): about four; IC50 (HDAC1): 1500 ± 500 nM; IC50 (HDAC6 [2]): 380 ± 40 nM
2 | CC(C)(C)OC(=O)N[C@@H](CCCCCS)C(=O)Nc1cccc(-c2ccccc2)c1 [Compound 13a] | 54 | 1.6 | 1.0 | 
3 | CC(C)(C)OC(=O)N[C@@H](CCCCCS)C(=O)Nc1cnc2ccccc2c1 [Compound 15a] | 32 | 1.6 | 1.0 | 
4 | CC(C)(C)OC(=O)N[C@@H](CCCCCS)C(=O)NC1CCCC1 [Compound 16a, (S)-tert-butyl 1-(cyclopentylamino)-7-mercapto-1-oxoheptan-2-ylcarbamate] |  | 42 | 36 | 
5 | CC(C)(C)OC(=O)N[C@@H](CCCCCS)C(=O)NC1CCCCC1 [Compound 17a, (S)-tert-butyl 1-(cyclohexylamino)-7-mercapto-1-oxoheptan-2-ylcarbamate] |  | 35 | 32 | 
6 | CC(C)(C)OC(=O)N[C@@H](CCCCCS)C(=O)NC1CCCCCC1 [Compound 18a, (S)-tert-butyl 1-(cycloheptylamino)-7-mercapto-1-oxoheptan-2-ylcarbamate] |  | 39 | 37 | 
7 | CC(C)(C)NC(=O)[C@H](CCCCCS)NC(=O)OC(C)(C)C [Compound 19a, (S)-tert-butyl 1-(tert-butylamino)-7-mercapto-1-oxoheptan-2-ylcarbamate] | 71 | 42 | 26 | 
8 | CC(C)(C)OC(=O)N[C@@H](CCCCCS)C(=O)NC12CC3CC(CC(C3)C1)C2 [Compound 20a, (S)-tert-butyl 1-(adamant-1-ylamino)-7-mercapto-1-oxoheptan-2-ylcarbamate] | 82 | 46 | 51 | 
9 | O=C(CCCCCCC(=O)Nc1ccc([C@H]2O[C@@H](CSc3nc(-c4ccccc4)c(-c4ccccc4)o3)C[C@@H](c3ccc(CO)cc3)O2)cc1)NO [tubacin] |  |  |  | effect on histone (lysine) acetylation (A549 cells): no effect; concentration at which α-tubulin activity (acetylation) is increased (A549 cells; concentrations as low as): ≤ 125 nM; effect on level of histone acetylation, gene-expression patterns, or cell-cycle progression [4]: does not affect; inhibition of α-tubulin deacetylation [5]: selective and reversible inhibitor
